Data: paper PMC11111404, “Discovery of potent small-molecule inhibitors of lipoprotein(a) formation” (Nature, 2024)
Several values for one entry are separate records, joined by “and”; a condition that tells them apart may be missing. Equal entries are not always repeated. Where two headings read alike, the source gives them in different places. Blank lines part the entries; values can stand above or below the compound they belong to.

What was measured:
[1] = Drug concentration in mouse blood after oral dosing; type: in vivo; conditions: female, whole blood (dried blood spots), day 5, read-out: Drug concentration, 4-h time point
Description: The LPA gene (GenBank accession code NM_005577) encoding the human apo(a) protein with a signal peptide, one KIV type 1, six KIV type 2 repeats, one each of KIV types 3–10, one KV and one protease domain was subcloned into a transgenic vector containing a mouse albumin promoter cassette and a human growth hormone polyadenylation signal. The transgenic mouse line was generated by pronucleus injection of the LPA transgenic vector. Eight individual transgenic founder mice were assessed for germline transmission of LPA by genotyping and assessment of the levels of apo(a) in the plasma. Positive founder mice were crossed with ApoB100 transgenic mice (Taconic model 1004), and the resulting mouse line nomenclature (B6.SJL-Tg(APOB)1102Sgy Tg(Alb-LPA)32Arte) was selected on the basis of the confirmation of germline transmission, the identification of LPA and huApoB100 transgenes and the levels of Lp(a) in the plasma. Mice hemizygous for both transgenes were used for pharmacology studies. The studies were conducted in female Lp(a) double transgenic mice (age around 7–17 months). Mice were housed in cages with a standard light cycle (12-h light, 12-h dark), at room temperature (22 ± 4 °C), with a relative humidity of 30–70%. Mice were identified by numbers on the cage cards. After arrival, mice were fed on a normal diet (Harlan Teklad diet 2014). Mice were randomized to treatment groups (n = 5 per group, unless otherwise noted) by body weight and baseline plasma Lp(a) concentration using a block randomized allocation tool (BRAT) for the study. In an example Lp(a) transgenic mouse study in which 66 mice were prescreened for baseline Lp(a) levels, the average Lp(a) level was 45 ± 1.8 µg ml^−1 (range 20–78 µg ml^−1). Mice were dosed with various compounds in vehicle (10 ml kg^−1, 1% hydroxyethyl cellulose (HEC), 0.25% Tween-80, Antifoam) or with vehicle alone as a control orally BID for five days. Blood samples were collected by tail bleeds at designated times, and Lp(a) levels were determined by ELISA by an investigator who was blinded to group allocation. In brief, lipoprotein particles were captured by a goat anti-Lp(a)-antibody-coated plate (Abcam ab31675, diluted 1:12,500 in HEPES-buffered saline), the plates were washed and samples were detected using an HRP-conjugated goat anti-apoB antibody (Abcam ab27622, diluted 1:3,000). Colorimetric peroxidase substrate 3,3’,5,5’-TMB was added, and the reaction was stopped using 1 N sulfuric acid. Absorbance at 450 nm was read on a Molecular Devices SpectraMax plate reader. Blood samples were collected at four hours after dosing on day 5 of dosing to confirm exposure. Full pharmacokinetic (PK) profiles were not evaluated. Concentrations of compounds were evaluated from dried blood spots through a non-Good Laboratory Practice (GLP) liquid chromatography with tandem mass spectrometry (LC–MS/MS) assay. Data were analysed in GraphPad Prism v.9.5.1

plasmin activity = biological target: T1, plasmin activity (Rattus norvegicus, UniProt Q01177); test: Rat plasma plasmin (plasminogen) activity ex vivo after oral dosing; type: in vivo; conditions: for plasma plasmin activity measured ex vivo: rats treated orally at pharmacological doses; for PLG activity % change from Vehicle: Vehicle mean 267.0; for PLG activity (Vmax), % change from Vehicle: vehicle mean 431.7
T1 construct: Plasma samples were collected via the abdominal aorta; from tissue; host or cells: Citrated plasma of orally dosed male Sprague Dawley rats
Description: Male Sprague Dawley rats (Charles River, average body weight 310 g, aged eight to nine weeks old) were housed in cages with a standard light cycle (12-h light, 12-h dark), at room temperature (22 ± 4 °C), with a relative humidity of 30–70%. Rats were identified by numbers on the cage cards. After arrival, rats were fed on a normal diet (Harlan Teklad diet 2014) and randomized to treatment groups (n = 5 per group) by baseline plasma plasminogen concentration and activity using a BRAT. LSN3441732 and LY3473329 were administered QD orally at three dose levels (3.7, 12.3 and 37 mg kg^−1; 3.2, 10.5 and 31.6 mg kg^−1 per dose, respectively) or vehicle (10 ml kg^−1, 1% HEC, 0.25% Tween-80, Antifoam) for four days. Terminal blood was drawn under general anaesthesia 24 h after the day-4 oral dose. Plasma samples were collected via the abdominal aorta into a premeasured anticoagulant BD Vacutainer used for blood collection (2.7 ml, buffered sodium citrate). The liver was flash frozen in liquid nitrogen. To measure plasminogen activity, 100 µl plasma per well was added to a 96-well plate (Corning) and the following were added to the indicated concentrations: 7.5 mM CaCl2 and 117 mM NaCl. Wells were mixed and warmed to 37 °C. Urokinase (Millipore) was added at 125 U per well and the plate was incubated at 37 °C for 4 min. The plasminogen substrate Chromogenix S-2251 (DiaPharma) was added to a concentration of 3.3 mM. The mixture was added and the plate was sealed and placed in a prewarmed plate reader, shaken, and the absorbance read every 30 s for 2 h. The maximum slope for each curve was determined and the percentage inhibition was calculated relative to untreated controls. Plasminogen protein was measured using ELISA kits for rat (Abcam ab157740) according to the manufacturer’s instructions. Plasminogen activity (percentage) and mass (µg ml^−1) in rat were analysed by ANOVA in JMP 16.1.0. The percentage reduction of plasminogen activity and mass for each treated group was compared with vehicle by Dunnett’s method.

[2] = rat, individual animals, dose 3.7 mpk, 3.7 mg/kg
[3] = rat, individual animals, dose 12.3 mpk, 12.3 mg/kg
[4] = rat, individual animals, dose 37 mpk, 37 mg/kg
[5] = rat plasma, 3473329 dose 3.2 mpk, individual animal, 3.2 mg/kg
[6] = rat plasma, 3473329 dose 10.5 mpk, individual animal, 10.5 mg/kg
[7] = rat plasma, 3473329 dose 31.6 mpk, individual animal, 31.6 mg/kg

T1 sequence (Q01177 20-812 limits assumed): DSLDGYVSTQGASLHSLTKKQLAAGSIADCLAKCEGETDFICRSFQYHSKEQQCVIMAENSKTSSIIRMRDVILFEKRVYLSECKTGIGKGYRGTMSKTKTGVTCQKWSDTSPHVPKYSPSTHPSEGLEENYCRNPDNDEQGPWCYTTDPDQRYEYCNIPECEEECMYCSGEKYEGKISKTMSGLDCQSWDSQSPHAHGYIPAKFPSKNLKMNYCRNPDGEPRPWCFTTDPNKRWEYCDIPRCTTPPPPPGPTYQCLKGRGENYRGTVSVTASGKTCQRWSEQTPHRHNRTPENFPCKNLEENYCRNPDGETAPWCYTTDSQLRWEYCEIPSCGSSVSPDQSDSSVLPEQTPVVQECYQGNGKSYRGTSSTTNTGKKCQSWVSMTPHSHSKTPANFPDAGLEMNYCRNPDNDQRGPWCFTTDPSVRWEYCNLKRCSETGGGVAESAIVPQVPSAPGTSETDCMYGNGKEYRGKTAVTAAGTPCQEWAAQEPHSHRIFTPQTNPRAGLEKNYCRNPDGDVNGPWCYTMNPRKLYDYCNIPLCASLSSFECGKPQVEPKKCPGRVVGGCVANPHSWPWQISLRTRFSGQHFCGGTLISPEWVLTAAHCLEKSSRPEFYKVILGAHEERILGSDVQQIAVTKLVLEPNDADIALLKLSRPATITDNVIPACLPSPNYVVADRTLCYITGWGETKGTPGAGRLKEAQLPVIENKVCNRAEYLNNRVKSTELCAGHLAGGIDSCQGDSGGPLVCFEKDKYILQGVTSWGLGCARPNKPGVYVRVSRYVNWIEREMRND

concentration at 4 h ([1]; oral 3 mg/kg): 13600 nM
concentration at 4 h ([1]; oral 10 mg/kg): 21600 nM
concentration at 4 h ([1]; oral 30 mg/kg): 28000 nM
concentration at 4 h ([1]; oral 100 mg/kg): 38000 nM
plasma plasmin activity measured ex vivo (plasmin activity): no inhibitory action
SMILES: Cl.O=C(O)[C@@H](Cc1ccccc1)[C@H]1CCNC1 [LSN3353871]

concentration at 4 h ([1]; oral 1 mg/kg): 147 ± 126 nM
concentration at 4 h ([1]; oral 3 mg/kg): 432 ± 203 nM
concentration at 4 h ([1]; oral 10 mg/kg): 465 ± 167 nM
concentration at 4 h ([1]; oral 30 mg/kg): 625 ± 184 nM
plasma plasmin activity measured ex vivo (plasmin activity): decreased plasma plasmin activity
SMILES: Cl.Cl.O=C(Nc1cccc(C[C@H](C(=O)O)[C@H]2CCNC2)c1)Nc1cccc(C[C@H](C(=O)O)[C@H]2CCNC2)c1 [LSN3441732]
PLG activity (Vmax), Plasminogen (mean of replicates) (plasmin activity; [2]): 240.6 and 263.3 and 236.5 and 207.9 and 235.8
PLG activity (Vmax), Replicate 1 (plasmin activity; [2]): 239.342 and 259.606 and 234.747 and 204.985 and 233.598
PLG activity (Vmax), Replicate 2 (plasmin activity; [2]): 241.939 and 266.922 and 238.196 and 210.884 and 238.070
PLG activity % change from Vehicle (plasmin activity; [2]): -9.88% and -1.40% and -11.44% and -22.12% and -11.68%
PLG activity (Vmax), Plasminogen (mean of replicates) (plasmin activity; [3]): 282.2 and 249.5 and 239.5 and 205.0 and 186.8
PLG activity (Vmax), Replicate 1 (plasmin activity; [3]): 284.452 and 249.068 and 238.009 and 201.341 and 183.623
PLG activity (Vmax), Replicate 2 (plasmin activity; [3]): 279.877 and 249.884 and 240.921 and 208.639 and 189.912
PLG activity % change from Vehicle (plasmin activity; [3]): 5.68% and -6.57% and -10.32% and -23.23% and -30.05%
PLG activity (Vmax), Plasminogen (mean of replicates) (plasmin activity; [4]): 195.8 and 173.1 and 184.9 and 150.3 and 200.6
PLG activity (Vmax), Replicate 1 (plasmin activity; [4]): 217.532 and 172.649 and 184.379 and 149.241 and 196.980
PLG activity (Vmax), Replicate 2 (plasmin activity; [4]): 174.037 and 173.594 and 185.398 and 151.449 and 204.259
PLG activity % change from Vehicle (plasmin activity; [4]): -26.67% and -35.16% and -30.76% and -43.69% and -24.86%

concentration at 4 h ([1]; oral 1 mg/kg): 28.4 ± 11 nM
concentration at 4 h ([1]; oral 3 mg/kg): 97.3 ± 39.1 nM
concentration at 4 h ([1]; oral 10 mg/kg): 215 ± 34.6 nM
concentration at 4 h ([1]; oral 30 mg/kg): 264 ± 39.3 nM
SMILES: O=C(O)[C@@H](Cc1cccc(CN(Cc2cccc(C[C@H](C(=O)O)[C@H]3CCNC3)c2)Cc2cccc(C[C@H](C(=O)O)[C@H]3CCNC3)c2)c1)[C@H]1CCNC1 [LY3473329]
PLG activity (Vmax), Plasminogen (mean of replicates) (plasmin activity; [5]): 454.0 and 451.6 and 414.5 and 449.4 and 437.1
PLG activity (Vmax), Replicate 1 (plasmin activity; [5]): 455.671 and 447.416 and 413.515 and 443.630 and 436.745
PLG activity (Vmax), Replicate 2 (plasmin activity; [5]): 452.252 and 455.835 and 415.508 and 455.110 and 437.378
PLG activity (Vmax), % change from Vehicle (plasmin activity; [5]): 5.15% and 4.60% and -3.99% and 4.08% and 1.23%
PLG activity (Vmax), Plasminogen (mean of replicates) (plasmin activity; [6]): 426.8 and 390.7 and 429.5 and 340.1 and 383.7
PLG activity (Vmax), Replicate 1 (plasmin activity; [6]): 431.402 and 387.065 and 425.922 and 337.633 and 378.355
PLG activity (Vmax), Replicate 2 (plasmin activity; [6]): 422.258 and 394.290 and 433.134 and 342.491 and 389.046
PLG activity (Vmax), % change from Vehicle (plasmin activity; [6]): -1.14% and -9.51% and -0.51% and -21.24% and -11.13%
PLG activity (Vmax), Plasminogen (mean of replicates) (plasmin activity; [7]): 357.4 and 336.9 and 317.3 and 381.6 and 333.2
PLG activity (Vmax), Replicate 1 (plasmin activity; [7]): 356.862 and 337.031 and 314.998 and 380.162 and 336.487
PLG activity (Vmax), Replicate 2 (plasmin activity; [7]): 357.898 and 336.831 and 319.531 and 383.010 and 329.925
PLG activity (Vmax), % change from Vehicle (plasmin activity; [7]): -17.22% and -21.96% and -26.52% and -11.62% and -22.82%
